Laboratory results as given in US11013715B2, “Nanoemulsion hydrophobic substances” (Vertosa, Inc., priority 2018, dated 2021).
Read-outs that look alike come from different tables or passages of the source.

How the values were obtained:
[1] = cited from earlier work
[2] = Emulsion droplet average size by Dynamic Light Scattering; type: physicochemical; conditions: named Span as co-surfactant; 1 g cannabinoid, 0.625 g olive oil, 3.75 g Tween 80, Span:Tween 80 1:6; 45 mL; 80% amplitude sonication until plateau; DLS
Protocol: Droplet size change was monitored by DLS time wise.
Sometimes, measuring concentrated nano-emulsion (>10 mg/g) by Dynamic Light Scattering could have misleading data. Since at higher concentration, the emulsion droplets pack close to each other and may generate unreal scattering pattern. […] While the nanosized droplets are a preferred embodiment of the instant application, larger sized droplets are contemplated as well. Sometimes, larger size emulsion is generated by design to achieve desirable effects.
As is generally known in the art, droplet sizes and their distribution may affect the human feeling on flavor. On one side, nano-size can amplify or even alter the taste, something tastes plain at bulk may taste bitter or sour in nano-scale. On the other side, taste buds on tongue tend to have different time reactions to different sizes of particles. The smaller droplets can quickly absorb at the gap of the tasting buds, thus blocking the touching/feeling from bigger droplets. The droplet size can be well controlled by how much energy is put into the liquid system, which can be controlled either by amplitude % of the sonicator or by how long the liquid is being sonicated at certain amplitude %.
The sonicator continuously calibrates itself to ensure consistent output. A commercially available sonicator may be used to make the compositions disclosed herein. The wattage of such a sonicator may vary from 250 W to about 800 W, and more preferably between about 350 W to about 650 W, and most preferably between 450 W to about 550 W. The output energy depends on the viscosity of the emulsion and also temperature. […] Processing amplitude are adjustable, and it is within a linear relation with intensity. And process time can also be adjustable, which will determine total input energy under certain intensity. Since each formula may need different amount of energy to get into nanosize, we usually monitor droplet size change with Dynamic Light Scattering over production time to determine when to stop the sonication.
1 g of cannabis and 5 g of the Formula 1 are added to a 100 ml beaker, and mechanically stirred under controlled heat (<60° C.), until it is well mixed. The cannabis oil may be a full plant extract or a high pure distillate. Water is added to the mixture, the amount of water is determined by the final targeting concentration. The mixture is kept stirring until a homogenous milky coarse emulsion is formed.

[3] = Table 1, HLB=20*Mh/M, scale 0 to 20
[4] = Span surfactants, Example 9 table

Polyglyceryl-6 Stearate
HLB [1, 3]: 9

Span 20
Final Emulsion droplet average size (nm) [2]: 91 nm

Span 40
Final Emulsion droplet average size (nm) [2]: 245 nm
HLB [1, 4]: 6.7

Span 60
Final Emulsion droplet average size (nm) [2]: 316 nm
HLB [1, 4]: 4.7

Span 80
Final Emulsion droplet average size (nm) [2]: 387 nm
HLB [1, 4]: 4.3

Span 83
Final Emulsion droplet average size (nm) [2]: 560 nm

Span 85
Final Emulsion droplet average size (nm) [2]: 876 nm

Span 120
Final Emulsion droplet average size (nm) [2]: 302 nm
HLB [1, 4]: 4.7

Tween 81
HLB [1, 3]: 10

polyglyceryl-6 oleate
HLB [1, 3]: 9
